Laboratory results reported in patent publication US4071411A, “Antitumor antibiotics aclacinomycins A and B [RD-9187A]” (priority 1974, dated 1978).
In brackets after ≈: the same amount, converted by molar mass. Entries after “also recorded” stand apart in the source; their conditions may differ.

What was measured:
various animal tumors = assay: antitumor activity in animal tumors (summary in words); assay type: in vivo; conditions: experimental animal tumors
[1] = system: Gram-positive bacteria and yeasts; assay: antimicrobial activity (summary in words); assay type: cell-based
Rat = assay: acute toxicity, single injection; assay type: in vivo; conditions: rats
[2] = acute toxicity, single injection; assay type: in vivo, Rat; conditions: rat, in vivo, single injection
lymphoma 6C3HED = lymphoma 6C3HED in mice (summary in words); assay type: in vivo
[3] = system: cultured mammalian tumor cells; assay: growth of tumor cells in culture (summary in words); assay type: cell-based
[4] = basicity and lipophilicity
leukemia P388 = leukemia P388 in mice (summary in words); assay type: in vivo
[5] = system: nucleic acid biosynthesis (L1210 cells); assay type: cell-based, mice; conditions: below 1 mcg./ml. in the medium, 60 min.
Vaccinia virus = assay: microbe, parasite or virus in culture; assay type: cell-based
[6] = system: P388 cells or L1210 cells; assay: survival of BDF1 mice inoculated with P388 or L1210 cells; assay type: in vivo; conditions: for T/C / 30 day survivors / Mean survival time: daily for 10 days; for 30 day survivors: control 0/8; for Mean survival time: control 10.0
Method: 2. […] For example, when BDF1 mice weighing 18 to 22 grams are inoculated with 1 × 10^6 cells of P388 cells or 5 × 10^5 cells of L1210 cells intraperitoneally and aclacinomycin A and B and aclacinomycin A-DNA complex are administered intraperitoneally once daily for 10 days consecutively 24 hours after the inoculation, the survival time of the mice is prolonged remarkably at the rate of over 150% in a dosage range of 0.5 to 5 mg./kg. of body weight per day compared with control mice receiving no antibiotic, as shown in the following table: […]

Can. albicans IAM 4905 = assay: antimicrobial spectrum, broth dilution method; assay type: cell-based; conditions: Candida albicans, IAM4905, read-out: Minimum Inhibitory Concentration
Method: (§1) 1. The antimicrobial spectrum of aclacinomycins A and B was determined by the broth dilution method as follows: […]

Strept. faecalis = assay: antimicrobial spectrum, broth dilution method; assay type: cell-based; conditions: Enterococcus faecalis, read-out: Minimum Inhibitory Concentration
Method: as §1

B. megaterium = assay: antimicrobial spectrum, broth dilution method; assay type: cell-based; conditions: Priestia megaterium, read-out: Minimum Inhibitory Concentration
Method: as §1

[7] = system: Bacillus subtilis ATCC 6633; assay: antimicrobial spectrum, broth dilution method; assay type: cell-based; conditions: ATCC6633, read-out: Minimum Inhibitory Concentration
Method: as §1

Staph. aureus Smith = assay: antimicrobial spectrum, broth dilution method; assay type: cell-based; conditions: Staphylococcus aureus, read-out: Minimum Inhibitory Concentration
Method: as §1

Diplo. pneumoniae Type 1 = assay: antimicrobial spectrum, broth dilution method; assay type: cell-based; conditions: Streptococcus pneumoniae, TYPE1, read-out: Minimum Inhibitory Concentration
Method: as §1

E. coli K12 = assay: antimicrobial spectrum, broth dilution method; assay type: cell-based; conditions: Escherichia coli, K12, read-out: Minimum Inhibitory Concentration
Method: as §1

Mic. flavus = assay: antimicrobial spectrum, broth dilution method; assay type: cell-based; conditions: Micrococcus flavus, read-out: Minimum Inhibitory Concentration
Method: as §1

Staph. aureus FDA 209P = assay: antimicrobial spectrum, broth dilution method; assay type: cell-based; conditions: Staphylococcus aureus, FDA209P, read-out: Minimum Inhibitory Concentration
Method: as §1

[8] = system: Mycobact. smegmatis ATCC 607; assay: antimicrobial spectrum, broth dilution method; assay type: cell-based; conditions: read-out: Minimum Inhibitory Concentration
Method: as §1

Sar. lutea ATCC 9341 = assay: antimicrobial spectrum, broth dilution method; assay type: cell-based; conditions: Micrococcus luteus, ATCC9341, read-out: Minimum Inhibitory Concentration
Method: as §1

B. cereus ATCC 9634 = assay: antimicrobial spectrum, broth dilution method; assay type: cell-based; conditions: Bacillus cereus, ATCC9634, read-out: Minimum Inhibitory Concentration
Method: as §1

Cory. bovis 1810 = assay: antimicrobial spectrum, broth dilution method; assay type: cell-based; conditions: Corynebacterium bovis, 1810, read-out: Minimum Inhibitory Concentration
Method: as §1

[9] = system: Kl. pneumoniae ATCC 10031; assay: antimicrobial spectrum, broth dilution method; assay type: cell-based; conditions: Klebsiella pneumoniae, ATCC10031, read-out: Minimum Inhibitory Concentration
Method: as §1

Ps. aeruginosa A20229 = assay: antimicrobial spectrum, broth dilution method; assay type: cell-based; conditions: Pseudomonas aeruginosa, A20229, read-out: Minimum Inhibitory Concentration
Method: as §1

Diplo. pneumoniae Type 3 = assay: antimicrobial spectrum, broth dilution method; assay type: cell-based; conditions: Streptococcus pneumoniae, TYPE3, read-out: Minimum Inhibitory Concentration
Method: as §1

St. pyogenes NY 5 = assay: antimicrobial spectrum, broth dilution method; assay type: cell-based; conditions: Streptococcus pyogenes, NY5, read-out: Minimum Inhibitory Concentration
Method: as §1

Can tropicalis IAM 4924 = assay: antimicrobial spectrum, broth dilution method; assay type: cell-based; conditions: read-out: Minimum Inhibitory Concentration
Method: as §1

[10] = system: Protein synthesis (L1210 cells); assay: cells; assay type: cell-based, mice; conditions: Mus musculus, L1210, 1 h; 14C-precursor incorporation, 37° C., 60 min.; read-out: ID50, Protein synthesis
L1210 cells = assay: cells; assay type: cell-based, mice; conditions: 3 days
[11] = system: RNA synthesis (L1210 cells); assay: cells; assay type: cell-based, mice

## CCC1(O)CC(OC2CC(N(C)C)C(OC3CC4OC5CC(=O)C(C)OC5OC4C(C)O3)C(C)O2)c2c(cc3c(c2O)C(=O)c2c(O)cccc2C3=O)C1C(=O)OC (stereo not drawn) [Aclacinomycin B]
Various animal tumors
  antitumor activity (in words): marked inhibitory effects; also recorded: potent antitumor activity
[1]
  antimicrobial activity: effective in inhibiting the growth; also recorded: strong antimicrobial activity
Rat
  lethal dose (LD50), in words: high lethal dose
[2]; ip, intraperitoneal
  LD50: 10 to 15 mg/kg
[2]; intravenous
  LD50: 15 mg/kg
Lymphoma 6C3HED
  life prolongation, mice inoculated with lymphoma 6C3HED: markedly prolong the lives
[3]
  inhibition of growth of tumor cells in culture (in words): remarkable inhibitory effect
[4]
  basicity: weakly basic
  lipophilicity: lipophilic
Leukemia P388
  inhibition of growth of leukemia P388: effective in inhibiting the growth
  life prolongation, mice inoculated with leukemia P388: markedly prolong the lives
[5]
  inhibition of nucleic acid biosynthesis: over 50%
Vaccinia virus
  inhibition of growth of vaccinia virus (in words): effective in inhibiting the growth
Vaccinia virus; Orthopoxvirus vaccinia, HeLa, read-out: ID50, Vaccinia virus
  IC50: < 10 µg/mL
solubility; acidic water
  solubility in acidic water: soluble
solubility; ether, hexane, cyclohexane, petroleum ether as listed
  solubility in low polar solvents: insoluble
solubility; methanol, ethanol, chloroform, ethyl acetate, acetone etc.
  solubility in organic solvents: soluble
solubility; water
  solubility in water: slightly soluble
[6]; 0.5 mg./kg./day i.p.
  T/C: 147%
  30 day survivors: 0/4
  Mean survival time: 14.7 days
[6]; 1.0 mg./kg./day i.p.
  T/C: 190%
  30 day survivors: 1/4
  Mean survival time: 19.0 days
[6]; 2.0 mg./kg./day i.p.
  T/C: 175%
  30 day survivors: 0/4
  Mean survival time: 17.5 days
[6]; 4.0 mg./kg./day i.p.
  T/C: 85%
  30 day survivors: 0/4
  Mean survival time: 8.5 days
[6]; dosage range 0.5 to 5 mg./kg. per day, i.p. daily for 10 days
  survival time prolonged, rate compared with control mice: over 150%
Can. albicans IAM 4905
  MIC: 10 µg/mL (≈ 12.3 µM)
Strept. faecalis
  MIC: 2.5 µg/mL (≈ 3.09 µM)
B. megaterium
  MIC: < 0.2 µg/mL
[7]
  MIC: < 0.2 µg/mL
Staph. aureus Smith
  MIC: < 0.2 µg/mL
Diplo. pneumoniae Type 1
  MIC: 0.63 µg/mL (≈ 0.778 µM)
E. coli K12
  MIC: > 100 µg/mL
Mic. flavus
  MIC: < 0.2 µg/mL
Staph. aureus FDA 209P
  MIC: < 0.2 µg/mL
[8]
  MIC: 5 µg/mL (≈ 6.17 µM)
Sar. lutea ATCC 9341
  MIC: < 0.2 µg/mL
B. cereus ATCC 9634
  MIC: < 0.2 µg/mL
Cory. bovis 1810
  MIC: < 0.2 µg/mL
[9]
  MIC: > 100 µg/mL
Ps. aeruginosa A20229
  MIC: > 100 µg/mL
Diplo. pneumoniae Type 3
  MIC: 0.63 µg/mL (≈ 0.778 µM)
St. pyogenes NY 5
  MIC: 1.25 µg/mL (≈ 1.54 µM)
Can tropicalis IAM 4924
  MIC: 20 µg/mL (≈ 24.7 µM)
[10]
  IC50: 12 µg/mL (≈ 14.8 µM)
L1210 cells; Mus musculus, L1210, 72 h, 37° C., read-out: ID50, growth
  IC50: 0.24 µg/mL (≈ 0.296 µM)
L1210 cells; below 1 mcg./ml. in the medium
  inhibition of cell growth: over 50%
[11]
  inhibition of RNA synthesis (in words): specific inhibition on RNA synthesis
[11]; Mus musculus, L1210, 1 h, 14C-precursor incorporation, 37° C., 60 min., read-out: ID50, RNA synthesis
  IC50: 0.2 µg/mL (≈ 0.247 µM)
